Key:
Type in all cases: physicochemical
Flash point, ASTM D93 = assay: Flash point, ASTM D93
Description: (§1) Specifications of Product. Key specifications of RKBA-14, RKBA17, RKBA-22 and RKBA28/33 products were determined by various ASTM methods.

[1] = I2 number, USP-NF-2022, issue 1
Description: as §1

Density, ASTM D1209 = assay: Density, ASTM D1209
Description: as §1

Viscosity, ASTM D445 = assay: Viscosity, ASTM D445
Description: as §1

RI of upcycled oils = assay: RI of upcycled oils
Description: as §1

[2] = Boiling point, ASTM D1120, ASTM D6352
Description: as §1

Pour point, ASTM D6749 = settings: neat oil
Description: as §1

[3] = Freezing point, ASTM S2386
Description: as §1

Flash point (Flash point, ASTM D93) | 12 number [1] | Density (Density, ASTM D1209; at 60º F) | Viscosity at 40° C. (Viscosity, ASTM D445) | RI (RI of upcycled oils) | Boiling point [2] | Pour Point (Pour point, ASTM D6749) | Freezing point [3] | Density (Density, ASTM D1209; at 25° C.) | Viscosity at 20° C. (Viscosity, ASTM D445; 20° C.) | Viscosity at 100° C. (Viscosity, ASTM D445; 100° C.) | Structure (SMILES)
121 ± 13° ° C. | <0.3g/ g/100 g | 0.7895 g/mL | 3.42 cSt | 1.4 | 288 ± 12 °C | – | – | – | – | – | CCCCCCC(CCCCC)CCCCC [RKBA-17]
153 ± 8° ° C. | – | – | 6.31 cSt | – | 319 ± 5 °C | −21 °C | −10.5 ± −4 °C | 0.8049 g/mL | 11.35 cSt | 1.96 cSt | CCCCCCCCCCCC(CCCCC)CCCCC [RKBA-22]

Reference: patent US20260191749A1, “COMPOSITION AND PROCESS OF MAKING BIO-BASED UPCYCLED OILS IN FLOW REACTORS” (RiKarbon, Inc., priority 2022, published 2026)
